Measurements reported in patent US20160304552A1, “MODIFIED NUCLEIC ACID MOLECULES AND USES THEREOF” (MODERNA THERAPEUTICS, INC., priority 2013, published 2016).

How the values were obtained:
HeLa cells [1] = assay: Transfection in HeLa cells, human GCSF modRNA (GCSF ELISA of supernatant); type: cell-based; conditions: Table 22, 250 ng modRNA, 18 h to 22 h
Procedure: (§1) The day before transfection, 20.000 HeLa cells (ATCC no. CCL-2; Manassas, Va.) were harvested by treatment with Trypsin-EDTA solution (LifeTechnologies, Grand Island, N.Y.) and seeded in a total volume of 100 ul EMEM medium (supplemented with 10% FCS and 1× Glutamax) per well in a 96-well cell culture plate (Corning, Manassas, Va.). The cells were grown at 37° C. in 5% CO2 atmosphere overnight. Next day, 83 ng of Luciferase modRNA or 250 ng of human GCSF modRNA, harboring chemical modifications on the bases or the ribose units, were diluted in 10 ul final volume of OPTI-MEM (LifeTechnologies, Grand Island, N.Y.). Lipofectamine 2000 (LifeTechnologies, Grand Island, N.Y.) was used as transfection reagent and 0.2 μl were diluted in 10 ul final volume of OPTI-MEM. After 5 min incubation at room temperature, both solutions were combined and incubated additional 15 min at room temperature. Then the 20 μl were added to the 100 ul cell culture medium containing the HeLa cells. The plates were then incubated as described before.
(§2) After 18 h to 22 h incubation, cell culture supernatants of cells expressing human GCSF or human EPO were collected and centrifuged at 10.000 rcf for 2 min. The cleared supernatants were transferred and analyzed with a human GCSF-specific or EPO ELISA kit (both from R&D Systems, Minneapolis, Minn.; Cat. #s SCS50, DEP00, respectively) according to the manufacturer instructions. All samples were diluted until the determined values were within the linear range of the human GCSF or EPO ELISA standard curve.

[2] = tested on: Rabbit Reticulocyte Lysate; assay: In vitro translation screen, firefly Luciferase modRNA (luciferase assay, relative light units); type: biochemical; conditions: Table 20; 250 ng modRNA, 45 min, 30° C.
Procedure: (§3) The in vitro translation assay was done with the Rabbit Reticulocyte Lysate (nuclease-treated) kit (Promega, Madison, Wis.; Cat. #L4960) according to the manufacturer's instructions. The reaction buffer was a mixture of equal amounts of the amino acid stock solutions devoid of Leucine or Methionine provided in the kit.
(§4) The modRNAs of firefly Luciferase, human GCSF and human EPO, harboring chemical modifications on either the bases or the ribose units, were diluted in sterile nuclease-free water to a final concentration of 250 ng in 2.5 ul (Stock 100 ng/μl). The modRNA (250 ng) was added to the mixture of freshly prepared Rabbit Reticulocyte Lysate and reaction buffer.
After 45 min incubation, the reaction was stopped by placing the plate on ice. Aliquots of the in vitro translation reaction containing luciferase modRNA were transferred to white opaque polystyrene 96-well plates (Corning, Manassas, Va.; Cat. # CLS3912) and combined with 100 ul complete luciferase assay solution (Promega, Madison, Wis.). The volumes of the in vitro translation reactions were adjusted or diluted until no more than 2 million relative light units per well were detected for the strongest signal producing samples. […] The plate reader was a BioTek Synergy H1 (BioTek, Winooski, Vt.).

[3] = tested on: Rabbit Reticulocyte Lysate; assay: In vitro translation screen, human GCSF modRNA (GCSF ELISA); type: biochemical; conditions: Table 20; 250 ng modRNA, 45 min, 30° C.
Procedure: as §3, §4
(§5) Aliquots of the in vitro translation reaction containing human GCSF modRNA or human EPO mRNA were transferred and analyzed with a human GCSF-specific or EPO ELISA kit (both from R&D Systems, Minneapolis, Minn.; Cat. #s SCS50, DEP00 respectively) according to the manufacturer instructions. All samples were diluted until the determined values were within the linear range of the human GCSF or EPO ELISA standard curve.

HeLa cells [4] = assay: Transfection in HeLa cells, human EPO modRNA (EPO ELISA of supernatant); type: cell-based; conditions: Table 22, 18 h to 22 h
Procedure: as §1, §2

[5] = tested on: Rabbit Reticulocyte Lysate; assay: In vitro translation screen, human EPO modRNA (EPO ELISA); type: biochemical; conditions: Table 20; 250 ng modRNA, 45 min, 30° C.
Procedure: as §3, §4, §5

T7 RNA polymerase = T7 RNA polymerase (Escherichia phage T7, UniProt P00573); assay: In vitro transcription yields of modified mRNA; type: biochemical; conditions: for EPO In Vitro Transcription yield: EPO mRNA made with the modified NTP(s); for GCSF In Vitro Transcription yield: GCSF mRNA made with the modified NTP(s); for Luc In Vitro Transcription yield: Luciferase mRNA made with the modified NTP(s)
Procedure: The in vitro transcription reaction generates mRNA containing modified nucleotides or modified RNA. The input nucleotide triphosphate (NTP) mix is made in-house using natural and unnatural NTPs.
A typical in vitro transcription reaction includes the following:
Incubation at 37° C. for 3 hr-5 hrs.
The crude IVT mix may be stored at 4° C. overnight for cleanup the next day. 1 U of RNase-free DNase is then used to digest the original template. After 15 minutes of incubation at 37° C., the mRNA is purified using Ambion's […]™ Kit (Austin, Tex.) following the manufacturer's instructions. This kit can purify up to 500 μg of RNA. Following the cleanup, the RNA is quantified using the NanoDrop and analyzed by agarose gel electrophoresis to confirm the RNA is the proper size and that no degradation of the RNA has occurred.
Modified mRNAs in TE buffer (1 μl) are used for Nanodrop UV absorbance readings to quantitate the yield of each modified mRNA from an in vitro transcription reaction (UV absorbance traces are not shown).

HeLa cells [6] = assay: Transfection in HeLa cells, Luciferase modRNA (luciferase assay, relative light units); type: cell-based, human; conditions: Table 22, 83 ng modRNA, Lipofectamine 2000, 18 h to 22 h
Procedure: as §1
After 18 h to 22 h incubation, cells expressing luciferase were lysed with 100 μl Passive Lysis Buffer (Promega, Madison, Wis.) according to manufacturer instructions. Aliquots of the lysates were transferred to white opaque polystyrene 96-well plates (Corning, Manassas, Va.) and combined with 100 ul complete luciferase assay solution (Promega, Madison, Wis.). The lysate volumes were adjusted or diluted until no more than 2 mio relative light units per well were detected for the strongest signal producing samples. […] The plate reader was a BioTek Synergy H1 (BioTek, Winooski, Vt.).

T7 RNA polymerase, sequence (P00573 whole entry): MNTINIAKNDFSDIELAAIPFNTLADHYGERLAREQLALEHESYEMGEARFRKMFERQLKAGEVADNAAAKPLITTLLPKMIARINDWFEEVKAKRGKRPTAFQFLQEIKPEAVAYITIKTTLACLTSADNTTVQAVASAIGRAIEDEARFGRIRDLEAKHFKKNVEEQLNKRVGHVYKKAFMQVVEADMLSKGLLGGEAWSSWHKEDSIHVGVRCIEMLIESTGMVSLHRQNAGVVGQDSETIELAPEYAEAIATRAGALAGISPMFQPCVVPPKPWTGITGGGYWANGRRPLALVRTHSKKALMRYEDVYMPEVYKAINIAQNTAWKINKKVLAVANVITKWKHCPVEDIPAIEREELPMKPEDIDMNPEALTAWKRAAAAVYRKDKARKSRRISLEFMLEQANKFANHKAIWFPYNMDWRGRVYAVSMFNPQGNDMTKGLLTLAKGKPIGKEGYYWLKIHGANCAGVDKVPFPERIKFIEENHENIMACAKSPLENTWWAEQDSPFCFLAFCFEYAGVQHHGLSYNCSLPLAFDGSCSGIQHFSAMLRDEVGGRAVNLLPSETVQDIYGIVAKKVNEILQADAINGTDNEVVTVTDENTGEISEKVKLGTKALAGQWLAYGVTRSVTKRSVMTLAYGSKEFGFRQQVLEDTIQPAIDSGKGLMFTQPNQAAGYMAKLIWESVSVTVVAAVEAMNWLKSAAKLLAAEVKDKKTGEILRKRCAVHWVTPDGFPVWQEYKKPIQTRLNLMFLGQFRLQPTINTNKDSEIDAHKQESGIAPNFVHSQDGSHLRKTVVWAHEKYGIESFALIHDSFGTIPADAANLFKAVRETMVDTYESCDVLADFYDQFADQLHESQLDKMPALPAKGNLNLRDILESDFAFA

**Q.** With `Cc1cn([C@@H]2O[C@H](COP(=O)(O)OP(=O)(O)OP(=O)(O)O)C(O)C2O)c(=S)[nH]c1=O` (stereo in doubt) [00901013004 (4), 5-Methyl-2-thio-UTP] as the compound, how does the “GCSF Expression” value (HeLa cells [1]) read?
**A.** The value was 16420 pg/mL.

**Q.** And the “Luc Expression (RLUs)” value [2]?
**A.** The value was 235 RLUs.

**Q.** And the “GCSF Expression” value [3]?
**A.** Its value is 2319 pg/mL.

**Q.** And the “Epo Expression” value (HeLa cells [4])?
**A.** Its value is 8333 pg/mL.

**Q.** And the “Epo Expression” value [5]?
**A.** The value was 1100 pg/mL.

**Q.** What about the “EPO In Vitro Transcription yield” value (T7 RNA polymerase) of the same compound?
**A.** Its value is 0.8717 mg.

**Q.** And the “GCSF In Vitro Transcription yield” value (T7 RNA polymerase)?
**A.** Its value is 0.4682 mg.

**Q.** And the “Luc In Vitro Transcription yield” value (T7 RNA polymerase)?
**A.** Its value is 0.7580 mg.

**Q.** Which results are given for `COC(=O)COc1cn([C@@H]2O[C@H](COP(=O)(O)OP(=O)(O)OP(=O)(O)O)C(O)C2O)c(=O)[nH]c1=O` (stereo in doubt) [00901013004 (348), UTP-5-oxyacetic acid Me ester]?
**A.** GCSF Expression (HeLa cells [1]): 5714 pg/mL; Luc Expression (RLUs) [2]: 162 RLUs; GCSF Expression [3]: 4388 pg/mL; Epo Expression (HeLa cells [4]): 8333 pg/mL; Epo Expression [5]: 544 pg/mL; EPO In Vitro Transcription yield (T7 RNA polymerase): 0.3859 mg; GCSF In Vitro Transcription yield (T7 RNA polymerase): 0.3836 mg; Luc In Vitro Transcription yield (T7 RNA polymerase): 0.6348 mg

**Q.** What does the source list for `Nc1nc(=O)n([C@@H]2O[C@H](COP(=O)(O)OP(=O)(O)OP(=O)(O)O)C(O)C2O)cc1C(F)(F)F` (stereo in doubt) [00901014003 (351), 5-Trifluoromethyl-CTP]?
**A.** GCSF Expression (HeLa cells [1]): 1039000 pg/mL; Luc Expression (RLUs) [2]: 23340 RLUs; Luc Expression (RLUs) (HeLa cells [6]): 32250 RLUs; GCSF Expression [3]: 31510 pg/mL; Epo Expression (HeLa cells [4]): 668100 pg/mL; Epo Expression [5]: 10200 pg/mL; EPO In Vitro Transcription yield (T7 RNA polymerase): 0.7886 mg; GCSF In Vitro Transcription yield (T7 RNA polymerase): 0.7710 mg; Luc In Vitro Transcription yield (T7 RNA polymerase): 0.5097 mg

**Q.** Which results are given for `Nc1ncc2ncn([C@@H]3O[C@H](COP(=O)(O)OP(=O)(O)OP(=O)(O)O)C(O)C3O)c2n1` (stereo in doubt) [03601012004 (382), 2-Aminopurine-riboside TP]?
**A.** GCSF Expression (HeLa cells [1]): 39290 pg/mL; Luc Expression (RLUs) [2]: 107000 RLUs; Luc Expression (RLUs) (HeLa cells [6]): 713.50 RLUs; GCSF Expression [3]: 8675 pg/mL; Epo Expression (HeLa cells [4]): 56980 pg/mL; Epo Expression [5]: 22180 pg/mL; EPO In Vitro Transcription yield (T7 RNA polymerase): 0.0125 mg; GCSF In Vitro Transcription yield (T7 RNA polymerase): 0.2919 mg; Luc In Vitro Transcription yield (T7 RNA polymerase): 0.0690 mg

**Q.** Which “GCSF Expression” value (HeLa cells [1]) does the source give for `NC/C=C/c1cn([C@@H]2O[C@H](COP(=O)(O)OP(=O)(O)OP(=O)(O)O)C(O)C2O)c(=O)nc1N` (stereo in doubt) [03601014009 (381), 5-Aminoallyl-CTP] here?
**A.** Its value is 24290 pg/mL.

**Q.** What about the “Luc Expression (RLUs)” value [2] of the same compound?
**A.** The value was 887 RLUs.

**Q.** And the “Luc Expression (RLUs)” value (HeLa cells [6])?
**A.** Its value is 319.00 RLUs.

**Q.** And the “GCSF Expression” value [3]?
**A.** Its value is 1806 pg/mL.

**Q.** What about the “Epo Expression” value (HeLa cells [4]) of the same compound?
**A.** Its value is 3488 pg/mL.

**Q.** And the “Epo Expression” value [5]?
**A.** Its value is 169 pg/mL.

**Q.** What about the “EPO In Vitro Transcription yield” value (T7 RNA polymerase) of the same compound?
**A.** Its value is 0.4943 mg.

**Q.** What about the “GCSF In Vitro Transcription yield” value (T7 RNA polymerase) of the same compound?
**A.** The value was 0.4567 mg.

**Q.** And the “Luc In Vitro Transcription yield” value (T7 RNA polymerase)?
**A.** The value was 0.3471 mg.
